Laboratory results from paper PMC10619132 (RSC Chemical Biology, 2023).
pIC50: −log10 of the molar value.

How the values were obtained:
YAP:TEAD1 complex = YAP:TEAD1 complex (Homo sapiens, UniProt P28347); assay: Anti-FLAG co-immunoprecipitation of HA-YAP in HEK293T cells; assay type: cell-based; details: 10 μM, 24 hours
YAP:TEAD4 complex = YAP:TEAD4 complex (Homo sapiens, UniProt Q15561); assay: as above; assay type: cell-based; details: 10 μM, 24 hours
YAP:TEAD2 complex = YAP:TEAD2 complex (Homo sapiens, UniProt Q15562); assay: as above; assay type: cell-based; details: 10 μM, 24 hours
[1] = system: Gal4-TEAD4 fusion protein with YAP; assay: Gal4-TEAD4 / YAP UAS-LUC reporter assay in HEK293T cells; assay type: cell-based; details: 20 μM, 24 hours
[2] = biological target: YAP–TEAD4-YBD interaction (Homo sapiens, UniProt Q15561); assay: Primary FP screening assay, 1536-well; assay type: binding; details: read-out: IC50 in the primary FP screening assay
Sequence of YAP–TEAD4-YBD interaction (Q15561 216-434): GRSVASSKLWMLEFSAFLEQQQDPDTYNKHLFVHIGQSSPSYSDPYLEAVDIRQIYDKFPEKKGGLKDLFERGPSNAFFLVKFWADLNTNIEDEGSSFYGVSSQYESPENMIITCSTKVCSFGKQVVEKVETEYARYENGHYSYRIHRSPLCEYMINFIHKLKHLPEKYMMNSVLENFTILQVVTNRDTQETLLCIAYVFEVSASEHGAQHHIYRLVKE

Sequence of YAP:TEAD1 complex (P28347 whole entry, one chain of several): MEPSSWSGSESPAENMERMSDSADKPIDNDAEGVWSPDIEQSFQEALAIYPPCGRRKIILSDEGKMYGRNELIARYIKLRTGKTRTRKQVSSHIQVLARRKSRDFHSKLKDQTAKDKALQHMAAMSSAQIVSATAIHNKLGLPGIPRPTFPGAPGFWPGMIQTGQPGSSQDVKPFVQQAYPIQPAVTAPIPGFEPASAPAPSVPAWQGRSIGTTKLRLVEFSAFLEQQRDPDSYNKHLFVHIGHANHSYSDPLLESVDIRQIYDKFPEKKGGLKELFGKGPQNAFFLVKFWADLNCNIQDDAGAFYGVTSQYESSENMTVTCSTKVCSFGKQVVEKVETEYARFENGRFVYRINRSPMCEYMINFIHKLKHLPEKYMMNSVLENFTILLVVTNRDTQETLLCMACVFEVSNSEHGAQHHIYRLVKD
Sequence of YAP:TEAD2 complex (Q15562 whole entry, the tested form may be a part, one chain of several): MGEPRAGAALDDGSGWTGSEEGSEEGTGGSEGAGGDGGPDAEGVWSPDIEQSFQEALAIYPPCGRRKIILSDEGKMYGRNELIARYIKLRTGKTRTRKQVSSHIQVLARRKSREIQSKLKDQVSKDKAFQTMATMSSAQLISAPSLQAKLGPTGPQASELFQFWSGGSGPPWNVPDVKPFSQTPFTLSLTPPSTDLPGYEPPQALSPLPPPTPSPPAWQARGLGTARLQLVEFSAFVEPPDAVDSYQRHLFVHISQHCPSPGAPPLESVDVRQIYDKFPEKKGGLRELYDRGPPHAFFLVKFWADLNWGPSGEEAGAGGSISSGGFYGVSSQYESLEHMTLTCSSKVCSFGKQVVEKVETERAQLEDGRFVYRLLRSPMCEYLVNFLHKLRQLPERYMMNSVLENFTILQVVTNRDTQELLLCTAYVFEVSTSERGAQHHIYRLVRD
Sequence of YAP:TEAD4 complex (Q15561 whole entry, one chain of several): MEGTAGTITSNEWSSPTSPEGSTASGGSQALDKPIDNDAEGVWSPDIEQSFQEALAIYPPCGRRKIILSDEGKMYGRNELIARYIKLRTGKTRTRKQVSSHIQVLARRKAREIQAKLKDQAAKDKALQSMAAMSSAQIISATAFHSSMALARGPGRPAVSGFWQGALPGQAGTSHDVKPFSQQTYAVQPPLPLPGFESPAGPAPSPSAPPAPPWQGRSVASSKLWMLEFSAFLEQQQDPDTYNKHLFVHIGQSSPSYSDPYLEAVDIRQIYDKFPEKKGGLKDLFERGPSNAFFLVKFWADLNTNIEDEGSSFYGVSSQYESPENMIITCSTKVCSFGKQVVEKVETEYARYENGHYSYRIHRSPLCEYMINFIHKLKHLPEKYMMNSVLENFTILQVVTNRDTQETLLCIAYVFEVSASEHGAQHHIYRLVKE

| inhibition of HA-YAP association with FLAG-TEAD4 (YAP:TEAD4 complex) | inhibition of HA-YAP association with FLAG-TEAD2 (YAP:TEAD2 complex) | pIC50 [2] | Molecule | inhibition of HA-YAP association with FLAG-TEAD1 (YAP:TEAD1 complex) | decrease in YAP-driven luciferase signal [1] |
| --- | --- | --- | --- | --- | --- |
| strongly inhibited | lesser inhibitory effect |  | C=CC(=O)N1C[C@@H](n2cc(-c3cccnc3)nn2)[C@H](OCc2ccc(C(F)(F)F)cc2)C1 [MYF-03-69] | robustly inhibited the association with TEAD1 transgene |  |
|  |  | 6.26 | Verteporfin [VTP] |  | 88% |
